Source: EP2601963B1, “N-ISOVALEROYL-L-GLUTAMYL-L-TRYPTOPHAN AS AN AGENT INHIBITING THE FORMATION OF ULCERS IN THE STOMACH AND THE DUODENUM” (Obshestvo S Ogranichennoj Otvetstvennostju "CytoNIR", priority 2010, dated 2015)

How the values were obtained:
[1] = Acute toxicity, single intramuscular dose; format: in vivo, white outbred male mice; settings: single-dose administration, dose exceeding the recommended therapeutic dose more than 100 times
Description: Total toxicity of N-isovaleroyl-L-glutamyl-L-tryptophan was studied in accordance with the requirements of The Handbook of the Experimental (non-clinical) Studies of Novel Pharmaceutical Substances (2000): single dose acute toxicity and sub-acute and chronic toxicity during long-term administration of the dipeptide.
Acute toxicity testing was conducted on 60 white outbred male mice with 20 - 23 g body weights. The animals were divided into 6 equal groups. Single intramuscular doses of the medication were administered to the animals in the amount of 0.1 ml in the following doses: 1 mg/kg, 5 mg/kg, 10 mg/kg, and 20 mg/kg in sterile 0.9 % NaCl solution. The animals in the control group were receiving the same amounts of 0.9 % NaCl solution.

[2] = test system: stress-induced gastric ulcers; experiment: Water-immersion stress model: gastric lesions, preventive treatment; format: in vivo, male Wistar rats; settings: 200 mg/kg + stress
Description: (§1) All studies were conducted on male Wistar rats weighing 220 ± 20 g, obtained from Rappolovo nursery (Leningrad oblast). For 14 days prior to the experiment, the animals were held in isolation. The animals were handled in accordance with the European Convention for the Protection of Vertebrate Animals used for Experimental and Other Scientific Purposes (Strasburg, 1986). The animals were held in standard plastic cages and fed a standard diet of PK120-3 (granulated feed in accordance with order # 1179 M3 USSR 10/10/1983) with a free access to water.
In each series, the animals were divided into experimental and control groups with 10 rats per group. The animals in the experimental groups were orally administered the claimed preparation or a comparator drug, and the control group animals received distilled water in the same amount.
The experimental animals were divided into 5 groups, 10 animals each. The animals received the following therapy: • control group received distilled water per os; • experimental group 1 received 0.1 mkg/kg N-isovaleroyl-L-glutamyl-L-tryptophan; • experimental group 2 received 10 mkg/kg N-isovaleroyl-L-glutamyl-L-tryptophan; […]; • experimental group 4 received 50 mkg/kg of the comparator drug Misoprostol;
The experiment was conducted as follows: • The proposed drug, comparator drugs, and distilled water were administered once daily over 7 days, and on the day of the ulcerogenic stress induction one hour prior to the stress.
The rats deprived of food for 18 hrs. were placed into special cases and immersed in water vertically to the level of their xyphoids. The animals were held in this position for 5 hrs. at 23° C water temperature. After that, the animals were removed from the experiment.
(§2) Animals' body weight changes were monitored throughout the experiment. The experimental animals were then sacrificed by decapitation, and their blood was collected in test tubes. The stomachs were extracted, dissected along the major curve, rinsed with cold saline solution, and the mucosa was carefully examined through a magnifying glass under bright lights. The mucosa was inspected for color, the presence of hyperemia and its intensity. The number of lesions, which were differentiated into small round (less than 1 mm), linear, and large lesions (more than 1mm) and the size of the area they covered were calculated. The average number of lesions per one animal in a group and the percentage of animals with ulcers were also calculated. Pauls Index (PI) was used as an integral indicator of the number of lesions and was calculated as follows: • PI = average number of lesions in a group x % of animals with lesions/100 [Pauls F., Wick A.M.,Mac. Key E.M. et al. An assau method for anti ulcer substances // Gastroenterology.- 1947. #8.- p.p.774 - 782]. Ulcer index UI was calculated as: UI = average lesion area size in the group x % of animals with lesions/100; gastroprotective activity GA1 was calculated as: GA1 = PI of the control group/PI of the experimental group, GA2 = UI of the control group/UI of the experimental group. The proposed drug was considered active when GA ≥ 2.

[3] = test system: indomethacin-induced gastric ulcers; experiment: Indomethacin-induced ulcer model, preventive treatment: gastric lesions; format: in vivo, male Wistar rats; parameters: key to GA1 (gastroprotective activity calculated for number of lesions): GA1 = PI of control group / PI of experimental group; key to GA2 (gastroprotective activity calculated for lesion size): GA2 = UI of control group / UI of experimental group; key to Ulcer Index: UI = average lesion area size x % of animals with lesions/100; Small round Size / Total Size / Large round Size / Linear Size / Lesion Size: unit not given here
Description: as §1, §2
(§3) Five groups of 10 animals per group were prepared for the experiment as described in Example 1.
In each series of experiments, the animals were divided into experimental and control groups at 10 animals per group. The animals in the experimental group were orally administered the proposed medication or a comparator drug, and the control animals were given distilled water in the same amount. • control group received distilled water per os; • experimental group 1 received 0.1 mkg/kg N-isovaleroyl-L-glutamyl-L-tryptophan; • experimental group 2 received 10 mkg/kg N-isovaleroyl-L-glutamyl-L-tryptophan; • experimental group 3 received 200 mkg/kg of the comparator drug Sucralfate.
The efficacy of the course of preventive treatment with the claimed composition was evaluated 24 hrs. post indomethacin administration. The study was conducted as in Example 1.

[4] = test system: indomethacin-induced ulcers; experiment: Indomethacin-induced ulcer model, therapeutic treatment: healing of gastric lesions; format: in vivo, male Wistar rats
Description: as §1, §2, §3
In each series of the experiments, the animals were divided into experimental and control groups at 10 animals per group. The proposed medication or a comparator drug were orally administered to the animals in the experimental group, and the control animals were given distilled water in the same amount. • control group received distilled water per os; • experimental group 1 received 0.1 mkg/kg isovaleroyl glutamyl tryptophan; • experimental group 2 received 10 mkg/kg isovaleroyl glutamyl tryptophan; • experimental group 3 received 200 mkg/kg of the comparator drug Sucralfate.
2 ml/kg of the ulcerogenic dose of indomethacin equal to 30 mg/kg was administered intraperitoneally. The treatment started 24 hrs. post indomethacin administration and continued for 5 days. The animals in the experimental groups received N-isovaleroyl-L-glutamyl-L-tryptophan or the comparator drug Sucralfate, and the control group received distilled water.

[5] = 200 mg/kg + stress (so in the source)
[6] = 200 mg/kg, indomethacin-induced ulcers
[7] = Indomethacin 30 mg/kg + 200 mg/kg, treatment 5 days

Substance: N-isovaleroyl-L-glutamyl-L-tryptophan [VGT preparation]
- toxic reactions [1]: did not cause any toxic reactions

Substance: aluminum complex of beta-D-fructofuranosyl-alpha-D-glucopyranoside octakis (hydrosulfate) [Sucralfate]
- # Lesions [2]: 8.8 ± 1.4
- % Animals with Ulcers [2]: 90%
- GA1 (gastroprotective activity calculated for number of lesions) [2]: 2.79
- GA2 (gastroprotective activity calculated for lesion size) [2]: 2.99
- Large round Amt. [2]: 3.9 ± 0.8
- Large round Size [2]: 2.4 ± 0.6
- Lesion Size [2]: 7.5 ± 1.5
- Linear Amt. [2]: 2.5 ± 0.6
- Linear Size [2]: 4.5 ± 1.0
- Pauls Index [2]: 7.92
- Small round Amt. [2]: 2.4 ± 0.7
- Small round Size [2]: 0.7 ± 0.2
- Total Amt. [2]: 8.8 ± 1.4
- Total Size [2]: 7.5 ± 1.5
- Ulcer Index [2]: 6.75
- # Lesions [3, 5]: 5.4 ± 1.4
- % Animals with Ulcers [3, 5]: 80%
- GA1 (gastroprotective activity calculated for number of lesions) [3, 5]: 4.93
- GA2 (gastroprotective activity calculated for lesion size) [3, 5]: 8.56
- Lesion Size [3, 5]: 3.3 ± 1.2
- PI [3, 5]: 4.32
- Ulcer Index [3, 5]: 2.64
- Large round Amount [3, 6]: 2.4 ± 0.8
- Large round Size [3, 6]: 1.0 ± 0.4
- Linear Amount [3, 6]: 1.2 ± 0.4
- Linear Size [3, 6]: 1.8 ± 0.9
- Small round Amount [3, 6]: 1.8 ± 0.6
- Small round Size [3, 6]: 0.5 ± 0.2
- Total Amount [3, 6]: 5.4 ± 1.4
- Total Size [3, 6]: 3.3 ± 1.2
- # Lesions [4, 7]: 3.3 ± 1.0
- % Animals with Ulcers [4, 7]: 85.7%
- GA1 (gastroprotective activity calculated for number of lesions) [4, 7]: 3.0
- GA2 (gastroprotective activity calculated for lesion size) [4, 7]: 3.3
- Lesion Size [4, 7]: 11.5 ± 4.26
- PI [4, 7]: 2.8
- Ulcer Index [4, 7]: 9.86
- animals found to have lesions ([4]; treatment after Indomethacin): 85.7%
